From paper PMC11164132 (British journal of pharmacology, 2021) come the findings set out here.

The target in the assay is hTRPV1 (Homo sapiens, UniProt Q8NER1). Type of assay: cell-based.
hTRPV1, sequence (Q8NER1 whole entry): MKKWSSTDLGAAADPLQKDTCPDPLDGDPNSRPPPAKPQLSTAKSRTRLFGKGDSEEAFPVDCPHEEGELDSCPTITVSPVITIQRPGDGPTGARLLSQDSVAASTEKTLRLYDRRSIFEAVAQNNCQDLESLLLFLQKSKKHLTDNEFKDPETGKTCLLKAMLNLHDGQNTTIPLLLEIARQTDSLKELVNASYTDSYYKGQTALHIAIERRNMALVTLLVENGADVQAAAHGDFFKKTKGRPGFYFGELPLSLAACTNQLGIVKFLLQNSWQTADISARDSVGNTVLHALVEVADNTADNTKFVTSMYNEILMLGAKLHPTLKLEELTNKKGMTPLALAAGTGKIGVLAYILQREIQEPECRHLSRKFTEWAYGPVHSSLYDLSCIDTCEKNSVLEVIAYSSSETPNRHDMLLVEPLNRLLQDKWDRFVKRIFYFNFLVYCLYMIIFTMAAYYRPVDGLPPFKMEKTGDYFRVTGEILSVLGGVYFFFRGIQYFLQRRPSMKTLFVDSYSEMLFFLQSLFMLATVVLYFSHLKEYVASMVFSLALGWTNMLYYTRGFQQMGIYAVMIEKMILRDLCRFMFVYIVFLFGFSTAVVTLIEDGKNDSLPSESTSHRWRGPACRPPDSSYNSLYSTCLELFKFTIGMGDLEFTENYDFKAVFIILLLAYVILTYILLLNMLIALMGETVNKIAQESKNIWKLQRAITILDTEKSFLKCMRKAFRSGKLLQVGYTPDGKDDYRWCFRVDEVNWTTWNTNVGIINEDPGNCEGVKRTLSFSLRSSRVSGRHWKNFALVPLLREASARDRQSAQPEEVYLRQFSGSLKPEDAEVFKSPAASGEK

For the compound `CCCCCCCCCCCC(=O)NCCO` [compound 3, lauric acid monoethanolamide], the EC50 was 3.2 µM.
